This test has as its system P388 leukemia ip, CD2F1 mice, survival T/C. The experiment in a line: NCI In Vivo Anticancer Drug Screen. Data for tumor model P388 Leukemia (intraperitoneal) in CD2F1 (CDF1) mice. To be noted: endpoint: median survival time, higher = longer survival. Put shortly: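 Mice carrying the transplanted tumor received test compound or vehicle. Survival was recorded in each group, and the value is the treated-group measurement divided by that of the vehicle-treated control group.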

[1] abbreviates: dose: 50.0 mg/kg/injection, schedule: Q01DX009 (ip), vehicle: saline with Tween-80.
Where [2] appears, read: dose: 100.0 mg/kg/injection, schedule: Q01DX009 (ip), vehicle: saline with Tween-80.
The mark [3] stands for this setting: dose: 200.0 mg/kg/injection, schedule: Q01DX009 (ip), vehicle: saline with Tween-80.
Setting [4] is: dose: 25.0 mg/kg/injection, schedule: Q01DX005 (ip), vehicle: Klucel (hydroxypropylcellulose) (HPC).
[5] abbreviates: dose: 50.0 mg/kg/injection, schedule: Q01DX005 (ip), vehicle: saline.
Where [6] appears, read: dose: 100.0 mg/kg/injection, schedule: Q01DX005 (ip), vehicle: saline.
[7] abbreviates: dose: 12.5 mg/kg/injection, schedule: Q01DX009 (ip), vehicle: saline.
Where [8] appears, read: dose: 25.0 mg/kg/injection, schedule: Q01DX009 (ip), vehicle: saline.
[9] abbreviates: dose: 50.0 mg/kg/injection, schedule: Q01DX005 (ip), vehicle: Klucel (hydroxypropylcellulose) (HPC).
Setting [10] is: dose: 100.0 mg/kg/injection, schedule: Q01DX005 (ip), vehicle: Klucel (hydroxypropylcellulose) (HPC).

Values joined by “and” are separate entries in the source; they are usually repeats but may differ in a detail not shown here. Equal values may be shown once. Toxic doses and inconclusive results are not listed.

`CCC(C)C(=O)OC1CCC=C2C=CC(C)C(CCC3CC(O)CC(=O)O3)C21` (configuration not stated): the T/C runs as follows: (dose: 15.0 mg/kg/injection, schedule: Q01DX009 (ip), vehicle: saline) 107 % of control; (dose: 30.0 mg/kg/injection, schedule: Q01DX009 (ip), vehicle: saline) 100 % of control; (dose: 60.0 mg/kg/injection, schedule: Q01DX009 (ip), vehicle: saline) 100 % of control.

With `O=C(O)C1CCCCC1Cc1ccccc1` (configuration not stated), the T/C is 109 % of control under setting [1], 98 % of control under setting [2] and 93 % of control under setting [3].

`OC(c1ccncc1)c1cc(Cl)ccc1Cl` (configuration not stated): the T/C by setting is: under setting [1], 94 % of control; under setting [2], 100 % of control; under setting [3], 108 % of control.

Consider `O=S(=O)(c1ccc(N=C=S)cc1)c1ccc(N=C=S)cc1`, for which the T/C under setting [4] is 112 % of control.

`COc1ccc(/C=C/c2nc(Nc3ccc(O)c(CN4CCCCC4)c3)c3ccccc3n2)cc1`: the T/C runs as follows: (dose: 50.0 mg/kg/injection, schedule: Q01DX009 (ip), vehicle: distilled water + alcohol) 99 % of control; (dose: 100.0 mg/kg/injection, schedule: Q01DX009 (ip), vehicle: distilled water + alcohol) 100 % of control; (dose: 200.0 mg/kg/injection, schedule: Q01DX009 (ip), vehicle: distilled water + alcohol) 91 % of control.

Turning to `C=C1C(=O)C23C(O)CC4C(C)(C)C(OC(C)=O)C(OC(C)=O)CC4(C)C2CCC1C3O` (configuration not stated), the T/C by setting is: (dose: 11.88 mg/kg/injection, schedule: Q01DX005 (ip), vehicle: Klucel (hydroxypropylcellulose) (HPC)) 115 % of control; (dose: 23.75 mg/kg/injection, schedule: Q01DX005 (ip), vehicle: Klucel (hydroxypropylcellulose) (HPC)) 112 % of control; (dose: 47.5 mg/kg/injection, schedule: Q01DX005 (ip), vehicle: Klucel (hydroxypropylcellulose) (HPC)) 112 % of control.

Turning to `O=C[c-]1[c-][c-][c-][c-]1.[Fe+2].[c-]1[c-][c-][cH-][c-]1`, the T/C (dose: 6.25 mg/kg/injection, schedule: Q01DX009 (ip), vehicle: saline with Tween-80) is 106 % of control; the T/C (dose: 12.5 mg/kg/injection, schedule: Q01DX009 (ip), vehicle: saline with Tween-80) is 95 % of control; the T/C (dose: 25.0 mg/kg/injection, schedule: Q01DX009 (ip), vehicle: saline with Tween-80) was 97 % of control; the T/C under setting [1] was 99 % of control.

With `O=C(O)c1cc(NCCO)c(C(=O)O)cc1NCCO`, the T/C is, setting by setting: under setting [5], 97 % of control; under setting [6], 100 % of control; (dose: 200.0 mg/kg/injection, schedule: Q01DX005 (ip), vehicle: saline) 91 % of control.

As for `CCC(C)N(C(=O)c1ccccc1)c1ccccc1` (configuration not stated), the T/C was 99 % of control and 106 % of control (dose: 12.5 mg/kg/injection, schedule: Q01DX009 (ip), vehicle: other); 101 % of control (dose: 12.5 mg/kg/injection, schedule: Q01DX009 (ip), vehicle: saline + Tween-80 + alcohol); 100 % of control and 102 % of control (dose: 25.0 mg/kg/injection, schedule: Q01DX009 (ip), vehicle: other); 104 % of control (dose: 25.0 mg/kg/injection, schedule: Q01DX009 (ip), vehicle: saline + Tween-80 + alcohol); 102 % of control (dose: 50.0 mg/kg/injection, schedule: Q01DX009 (ip), vehicle: other); 106 % of control (dose: 50.0 mg/kg/injection, schedule: Q01DX009 (ip), vehicle: saline + Tween-80 + alcohol).

For the molecule `CCCCN(CCNc1cc(OC)cc2cccnc12)C1CCCC1`, the T/C is, setting by setting: under setting [5], 104 % of control; under setting [6], 88 % of control.

As for `CN1C2=NCCN2S(=O)(=O)c2ccccc21`, the T/C was 101 % of control (dose: 100.0 mg/kg/injection, schedule: Q01DX001 (ip), vehicle: saline with Tween-80); 110 % of control (dose: 200.0 mg/kg/injection, schedule: Q01DX001 (ip), vehicle: saline with Tween-80); 92 % of control (dose: 400.0 mg/kg/injection, schedule: Q01DX001 (ip), vehicle: saline with Tween-80).

On to `O=C(NC1=NN(c2ccccc2)C(=O)C1)c1ccccc1`, for which the T/C was 101 % of control (dose: 9.37 mg/kg/injection, schedule: Q01DX009 (ip), vehicle: saline); 110 % of control (dose: 18.75 mg/kg/injection, schedule: Q01DX009 (ip), vehicle: saline); 98 % of control (dose: 37.5 mg/kg/injection, schedule: Q01DX009 (ip), vehicle: saline).

`Nc1nc(N)c(N=O)c(Nc2ccccc2)n1`: the T/C was 97 % of control under setting [1], 99 % of control under setting [2] and 96 % of control under setting [3].

In the case of `CN(C)CCCNc1ccc(O)c2sc3ccccc3c(=O)c12`, the T/C is, setting by setting: (dose: 3.13 mg/kg/injection, schedule: Q01DX009 (ip), vehicle: saline) 101 % of control; (dose: 6.25 mg/kg/injection, schedule: Q01DX009 (ip), vehicle: saline) 103 % of control; under setting [7], 103 % of control; under setting [8], 100 % of control.

On to `CCC(=O)Cc1nc2n(c1O)/C(=N/C(=O)Nc1ccc(Cl)cc1)N=N2`, for which the T/C is, setting by setting: (dose: 60.0 mg/kg/injection, schedule: Q01DX005 (ip), vehicle: saline with Tween-80) 100 % of control; (dose: 120.0 mg/kg/injection, schedule: Q01DX005 (ip), vehicle: saline with Tween-80) 98 % of control; (dose: 240.0 mg/kg/injection, schedule: Q01DX005 (ip), vehicle: saline with Tween-80) 98 % of control.

On to `O=C1CSC(c2c(Cl)cccc2[N+](=O)[O-])N1c1nncs1` (configuration not stated), for which the T/C is 87 % of control (dose: 100.0 mg/kg/injection, schedule: Q04DX002 (ip), vehicle: saline with Tween-80); 87 % of control (dose: 200.0 mg/kg/injection, schedule: Q04DX002 (ip), vehicle: saline with Tween-80); 92 % of control (dose: 400.0 mg/kg/injection, schedule: Q04DX002 (ip), vehicle: saline with Tween-80).

Consider `CC1OC(OC2C(O)C(OCCc3ccc(O)c(O)c3)OC(CO)C2OC(=O)/C=C/c2ccc(O)c(O)c2)C(O)C(O)C1O` (configuration not stated), for which the T/C (dose: 4.75 mg/kg/injection, schedule: Q01DX005 (ip), vehicle: Klucel (hydroxypropylcellulose) (HPC)) was 106 % of control; the T/C (dose: 9.5 mg/kg/injection, schedule: Q01DX005 (ip), vehicle: Klucel (hydroxypropylcellulose) (HPC)) is 100 % of control; the T/C (dose: 19.0 mg/kg/injection, schedule: Q01DX005 (ip), vehicle: Klucel (hydroxypropylcellulose) (HPC)) is 100 % of control; the T/C (dose: 38.0 mg/kg/injection, schedule: Q01DX005 (ip), vehicle: Klucel (hydroxypropylcellulose) (HPC)) is 100 % of control.

Consider `COc1cc2c(cc1OC)-c1c(oc3c(CCC(C)C)c(O)ccc3c1=O)CO2`, for which the T/C (dose: 6.25 mg/kg/injection, schedule: Q01DX005 (ip), vehicle: Klucel (hydroxypropylcellulose) (HPC)) was 99 % of control; the T/C (dose: 12.5 mg/kg/injection, schedule: Q01DX005 (ip), vehicle: Klucel (hydroxypropylcellulose) (HPC)) was 92 % of control and 94 % of control; the T/C under setting [4] was 88 % of control and 94 % of control; the T/C under setting [9] is 86 % of control; the T/C under setting [10] was 86 % of control.

Consider `N=C(N)c1ccc(/C=C\C=C/c2cc3cc(C(=N)N)ccc3o2)cc1`, for which the T/C runs as follows: (dose: 1.56 mg/kg/injection, schedule: Q04DX003 (ip), vehicle: saline with Tween-80) 107 % of control; (dose: 3.12 mg/kg/injection, schedule: Q04DX003 (ip), vehicle: saline with Tween-80) 122 % of control; (dose: 3.12 mg/kg/injection, schedule: Q04DX003 (ip), vehicle: saline) 115 % of control; (dose: 12.5 mg/kg/injection, schedule: Q04DX003 (ip), vehicle: saline) 124 % of control.

Regarding `C=CCOCN1c2cc(OC)c([C@@]3(C(=O)OC)C[C@@H]4CN(CCc5c3[nH]c3ccccc53)C[C@](O)(CC)C4)cc2[C@@]23CCN4CC=C[C@@](CC)([C@@H](OC(C)=O)[C@](O)(C(=O)OC)[C@H]12)[C@H]43`, the T/C runs as follows: (dose: 1.0 mg/kg/injection, schedule: Q01DX001 (ip), vehicle: water) 109 % of control; (dose: 2.0 mg/kg/injection, schedule: Q01DX001 (ip), vehicle: water) 111 % of control; (dose: 4.0 mg/kg/injection, schedule: Q01DX001 (ip), vehicle: water) 115 % of control; (dose: 32.0 mg/kg/injection, schedule: Q01DX001 (ip), vehicle: other) 158 % of control.

With `COC1=C(OC)S[C@H]2C3CC([C@H]2S1)[C@@H]1SC(OC)=C(OC)S[C@H]31`, the T/C was 97 % of control under setting [9]; 97 % of control under setting [10]; 98 % of control (dose: 200.0 mg/kg/injection, schedule: Q01DX005 (ip), vehicle: Klucel (hydroxypropylcellulose) (HPC)).

As for `CCCCCCCCCCCCCCCCCCOP(=O)([O-])OCC[N+](C)(C)C`, the T/C under setting [7] is 98 % of control and the T/C under setting [8] is 107 % of control.

These data come from PubChem BioAssay AID330 (DTP/NCI, 2004).
